Experimental findings from patent publication US20250346582A1, “SPLEEN TYROSINE KINASE INHIBITORS AND METHODS OF USE THEREOF” (THE BOARD OF TRUSTEES OF THE UNIVERSITY OF ILLINOIS, priority 2022, published 2025) are described below.

A value given as a limit tells only on which side of the number the result lay.

The target in one data set is T1, BLNK-SH2 (Homo sapiens, UniProt Q8WV28).
T1 construct: All SH2 domain constructs were cloned into the pRSET-B vector; polyhistidine (N); made in house; host or cells: Escherichia coli BL21 (DE3) pLysS
T1 sequence (Q8WV28 346-453 limits assumed): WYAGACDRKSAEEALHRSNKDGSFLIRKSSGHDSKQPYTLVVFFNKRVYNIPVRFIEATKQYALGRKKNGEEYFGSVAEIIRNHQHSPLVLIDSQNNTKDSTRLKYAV
Kind of data set: Fluorescence quenching vesicle binding assay, BLNK-SH2. Particulars: Table 4; POPC/POPS/PIP3/dabsyl-PE (67:20:3:10) vesicles (40 μM); read-out: Imax (%). On the procedure:
The membrane-binding assay is based on fluorescence quenching of EGFP fused to a SH2 domain by a dark quencher containing lipid, dabsyl-PE, incorporated in lipid vesicles. The plate reader assay was performed using the Synergy™ Neo spectrofluorometer at 25° C. Nontreated black polystyrene 96-well plates (Corning) were used. Protein (10-50 nM) with the increasing concentration of vesicles with a given lipid composition in 20 mM Tris buffer, pH 7.4, containing 0.16 M NaCl was added to each row of wells and the EGFP fluorescence emission at 516 nm was measured with excitation set at 485 nm. Z′ factor for the assay system was determined as described^74. Imax and IC50 values of inhibitors were determined using the equation, I=Imax/(1+IC50/[I]) where I and [I] indicate % inhibition and inhibitor concentration, respectively. The average and standard deviation values were obtained from triplicate determinations.
We also optimized a recently developed fluorescence quenching-based lipid-binding assay^47 for high-throughput screening of these molecules for their inhibitory activity against the PIP3-SH2 interaction. Specifically, we expressed SH2 domains as EGFP-tagged proteins and directly quantified their membrane binding by monitoring the quenching of EGFP fluorescence emission intensity by a dark quencher-containing lipid, N-dimethylaminoazo-benzenesulfonyl-phosphatidylethanolamine (dabsyl-PE), incorporated in the vesicles. We then screened for compounds that inhibited binding of Syk-cSH2, BLNK-SH2, and PLCγ2-cSH2, respectively, to 1-palmitoyl-2-oleoyl-PC (POPC)/1-palmitoyl-2-oleoyl-PS (POPS)/PIP3/dabsyl-PE (67:20:3:10) vesicles while eliminating those that inhibit their non-specific binding to anionic POPC/POPS/dabsyl-PE (70:20:10) vesicles. The quality of the screening system was evaluated using 1% dimethylsulfoxide (DMSO) and 20 μM D-myo-inositol-1,3,4,5-tetraphosphate (IP4) as negative and positive controls, respectively. The clear separation of positive and negative control data and the average Z′-factor of 0.7 supported the robustness of our system for high-throughput screen of PIP3-SH2 interaction inhibitors.

Another data set has as its system MV4-11 cells. Kind of data set: XTT cell proliferation assay, MV4-11 cells. The class given is cell-based. On the procedure: MV4-11 or HL-60 cells were seeded into a clear-bottom 96-well plate containing varying concentrations of inhibitors in the optimal growth media described above and the mixtures were incubated for 16 h. Cells were then treated with a mixture of XTT-labeling reagents and the electron coupling reagents according to the manufacturer's protocol (Roche). After 4 h, the absorbance values at 475 nm and at 660 nm were simultaneously measured by Synergy™ Neo spectrofluorometer at 25° C. Cells with the growth media was used for background correction.
For orientation: Formazan colour is commonly taken as a measure of viable cells.

Data set [1] relates to Syk WT, E164D and E164Q. Kind of data set: Phosphorylation in Syk-deficient MV4-11 cells re-expressing Syk WT or E164 mutants. It is filed as cell-based, human. To be noted: Syk-deficient MV4-11 cells with full-length E164D or E164Q; 5 μM overnight. On the procedure: (§1) FIGS. 5A-5B show cellular target validation of WC36. (a) Inhibition of Syk WT and WC36-binding site mutants by WC36. Entospletinib-resistant MV4-11 cells were treated with shRNA to suppress the expression of endogenous Syk and then transfected with exogenous Syk-WT and four Syk-[…] genes, respectively. These constructs harbor silent mutations to avoid gene suppression by Syk ShRNA. Phosphorylation of Syk and ERK1/2 in these cells was then monitored before and after treatment with 5 μM WC36 overnight. […] (b) Western blot analysis of WC36B-binding proteins captured by pull-down by streptavidin beads. Biotin was used as a negative control. GAPDH was used as a gel loading control.
(§2) Cells were seeded at a density of 3.0×10^5 cells/well prior to incubation with inhibitors. Cells were incubated with 1-5 μM of Syk inhibitors overnight and stimulated with different antibodies: IgG2 for AML cells, IgM for Raji B cells, and OKT3 (Biolegend) for Jurkat cells. The cells were lysed in NP40 lysis buffer (50 mM Tris, pH 7.5, 150 mM NaCl, 1 mM EDTA, 1% NP40, 10% glycerol, 10 mM NaF, 10 mM Na3VO4, and the protease inhibitor cocktail) at 4° C. and the cell debris was removed by centrifugation. Samples were analyzed by SDS-PAGE. […] The chemiluminescence intensity of protein bands in the gel was analyzed and documented by the Azure 500Q Imaging System.

In data set [2] the target is T2, Syk WT, E164D and E164Q (Homo sapiens, UniProt P43405).
T2 construct: When the full-length E164D and E164Q, respectively, were introduced into Syk-deficient MV4-11 cells; expressed in transfected cells; host or cells: entospletinib-resistant MV4-11 cells with shRNA knockdown of endogenous Syk
The data set is described as above. The class given is cell-based. Particulars: Syk WT added back to Syk-deficient AML cells; 5 μM overnight. On the procedure:
as §1, §2

In the next data set the test system is Raji B cells. Kind of data set: Cell viability assay (CellTiter-Glo), Raji cells. The class given is cell-based. Particulars: 0.5-5 μM. The method, then:
All cell viability assays were conducted in a white, flat-bottom, 96-well tissue culture plate (Corning). The Raji cells were seeded at a density of 3.0×10^5 cells/well 24 h prior to the incubation with the inhibitor. Varying concentrations of WC36 (or DMSO) was then added to each well and the plates were incubated at 37° C. and at 5% CO2 for 72 h. Cell viability was quantified with the CellTiter-Glo reagent. Growth media were removed by aspiration and replaced with 100 μl fresh media and 100 μl CellTiter-Glo reagent. The plates were then gently shaken for 2 min and incubated at 25 C.° for additional 8 min. The luminescence was measured using Synergy™ Neo spectrofluorometer at 25 C.°. The luminescence value at each WC36 concentration was normalized against that without WC36. DMSO with the same volume as the WC36 solution was used as negative controls.
In general terms: Cellular ATP, detected with luciferase, serves as a proxy for viable cell number.

Turning to `[N-]=[N+]=C(C(=O)OC1CCCCC1)C(Nc1ncccn1)c1ccco1` (racemic) [WC35, Cyclohexyl 2-diazo-3-(furan-2-yl)-3-(pyrimidin-2-ylamino)propanoate], the Emax at BLNK-SH2 was under 10%. The “inhibition of cell proliferation (XTT assay)” value in the data set on MV4-11 cells is “modestly more active than WC38 and entospletinib”.
Turning to `[N-]=[N+]=C(C(=O)OC1CCCCC1)C(Nc1ncccn1)c1c[nH]c2ccccc12` (racemic) [WC36, Cyclohexyl 2-diazo-3-(1H-indol-3-yl)-3-(pyrimidin-2-ylamino)propanoate], at BLNK-SH2, the Emax was under 10%. In addition, the “inhibition of cell proliferation (XTT assay)” value in the data set on MV4-11 cells is “modestly more active than WC38 and entospletinib”. For the same compound, in the data set on Syk WT, E164D and E164Q [1], the “inhibition of phosphorylation of Syk E164D/E164Q and ERK1/2” value is “did not inhibit phosphorylation of these mutants and ERK1/2”. Moreover, the “inhibition of phosphorylation of Syk WT and ERK1/2” value against Syk WT, E164D and E164Q [2] was “potently suppressed phosphorylation of Syk WT and ERK1/2”. In addition, the “effect on cell viability” value in the data set with Raji B cells is given as “minimal effect on cell viability”.
As for `[N-]=[N+]=C(C(=O)OC1CCCCC1)C(Nc1ncccn1)c1ccc[nH]1` (racemic) [WC38, Cyclohexyl 2-diazo-3-(pyrimidin-2-ylamino)-3-(1H-pyrrol-2-yl)propanoate], the Emax on BLNK-SH2 is under 10%.
